From patent US20110183963A1 (priority 2009, published 2011)

What was measured:
[1] = biological target: human NET (Homo sapiens, UniProt P23975); details: relative to quetiapine; cited from earlier work
[2] = biological target: T1, 5-HT1A receptor (Homo sapiens, UniProt P08908); details: relative to quetiapine; cited from earlier work
T1 sequence (P08908 1-422): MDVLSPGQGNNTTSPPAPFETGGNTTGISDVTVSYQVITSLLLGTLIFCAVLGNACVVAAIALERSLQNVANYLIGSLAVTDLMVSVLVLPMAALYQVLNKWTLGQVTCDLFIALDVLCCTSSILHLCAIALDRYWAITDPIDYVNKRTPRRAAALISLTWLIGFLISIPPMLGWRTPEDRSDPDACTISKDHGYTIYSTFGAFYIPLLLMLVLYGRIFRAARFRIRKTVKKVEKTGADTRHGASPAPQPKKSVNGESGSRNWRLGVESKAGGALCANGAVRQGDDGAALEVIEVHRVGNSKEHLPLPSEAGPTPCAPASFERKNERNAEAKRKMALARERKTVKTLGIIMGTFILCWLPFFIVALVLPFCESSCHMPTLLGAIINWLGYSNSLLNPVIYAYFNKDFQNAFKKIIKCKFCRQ

[3] = to be dosed efficiently via oral gavage in rats
[4] = system: leptin; details: chronic oral administration for a period of 6 weeks; cited from earlier work
[5] = cited from earlier work

Sequence of human NET (P23975 whole entry): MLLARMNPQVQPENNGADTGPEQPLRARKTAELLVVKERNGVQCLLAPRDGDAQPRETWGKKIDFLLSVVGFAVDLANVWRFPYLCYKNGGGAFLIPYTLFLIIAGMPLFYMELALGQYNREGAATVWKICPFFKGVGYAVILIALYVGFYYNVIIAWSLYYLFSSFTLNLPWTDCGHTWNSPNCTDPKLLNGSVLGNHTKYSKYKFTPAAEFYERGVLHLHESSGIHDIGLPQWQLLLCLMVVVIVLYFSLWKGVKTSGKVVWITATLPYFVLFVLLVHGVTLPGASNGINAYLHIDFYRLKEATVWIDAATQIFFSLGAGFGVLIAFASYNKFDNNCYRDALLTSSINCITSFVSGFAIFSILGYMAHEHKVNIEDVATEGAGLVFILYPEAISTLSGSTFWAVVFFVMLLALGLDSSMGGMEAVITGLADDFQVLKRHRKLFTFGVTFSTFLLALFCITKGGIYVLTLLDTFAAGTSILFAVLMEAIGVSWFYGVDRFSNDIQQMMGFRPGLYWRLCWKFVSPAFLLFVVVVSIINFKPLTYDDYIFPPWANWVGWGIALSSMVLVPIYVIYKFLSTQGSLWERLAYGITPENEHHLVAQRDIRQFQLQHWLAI

## c1ccc2c(c1)N=C(N1CCNCC1)c1ccccc1S2 [N-desalkyl-quetiapine, 4-(dibenzo[b,f][1,4]thiazepin-11-yl)piperazine]
[1]
  higher avidity for inhibiting human NET than quetiapine itself: about 100 fold
[2]
  more potent than quetiapine at the 5-HT1A receptor: 10 fold

## OCCOCCN1CCN(C2=Nc3ccccc3Sc3ccccc32)CC1 [fumarate]
[3]
  solubility for oral gavage dosing: not soluble enough

## OCCOCCN1CCN(C2=Nc3ccccc3Sc3ccccc32)CC1 [quetiapine, 2-(2-(4-(dibenzo[b,f][1,4]thiazepin-11-yl)piperazin-1-yl)ethoxy)ethanol]
[4]
  increase in leptin release: about 37%
[5]; estimated
  Absolute bioavailability: 9%
[5]; in vivo
  terminal half-life time for the drug's elimination: about 7 hours
